Assay results: patent publication US9394284B2, “Compounds act at multiple prostaglandin receptors giving a general anti-inflammatory response” (Allergan, Inc., priority 2010, dated 2016)

Key:
Assay type in all cases: cell-based
[1] = target: T1, human prostanoid FP receptor (Homo sapiens, UniProt P43088); experiment: FLIPR Ca2+ signaling antagonist assay, FP receptor stable cell line; settings: HEK-293 EBNA stable cell line; standard agonist 17-phenyl-PGF2α; NA = inactive (no antagonism or Kb 10,000 nM); PAg, Ag not defined
T1 construct: expressed in transfected cells
T1 sequence (P43088 whole entry): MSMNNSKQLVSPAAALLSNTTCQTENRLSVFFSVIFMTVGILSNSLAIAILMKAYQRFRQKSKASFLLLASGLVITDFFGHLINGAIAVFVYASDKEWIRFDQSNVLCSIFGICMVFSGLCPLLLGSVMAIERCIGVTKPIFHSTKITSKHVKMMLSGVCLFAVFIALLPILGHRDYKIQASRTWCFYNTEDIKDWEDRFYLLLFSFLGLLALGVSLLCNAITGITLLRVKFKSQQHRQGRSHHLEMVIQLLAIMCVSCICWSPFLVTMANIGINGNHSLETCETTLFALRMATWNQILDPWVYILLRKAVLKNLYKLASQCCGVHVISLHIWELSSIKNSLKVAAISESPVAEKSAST
Summary of the method: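 Peak Fluo-4 fluorescence (ex 470–495, em 515–575 nm) was read for 3.5 min on FLIPR after agonist injection and expressed relative to 10^−6 M standard agonist. Cells were HEK-293 EBNA transfectants. Test compound was added 4.5 min beforehand at 0.1–30 μM, or 0.067–1 μM for TP.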

[2] = target: T2, human prostanoid DP1 receptor (Homo sapiens, UniProt Q13258); experiment: FLIPR Ca2+ signaling antagonist assay, DP1 receptor stable cell line; settings: HEK-293 EBNA stable cell line; standard agonist BW 245C; NA = inactive (no antagonism or Kb 10,000 nM); PAg, Ag not defined
T2 construct: expressed in transfected cells
T2 sequence (Q13258 1-359): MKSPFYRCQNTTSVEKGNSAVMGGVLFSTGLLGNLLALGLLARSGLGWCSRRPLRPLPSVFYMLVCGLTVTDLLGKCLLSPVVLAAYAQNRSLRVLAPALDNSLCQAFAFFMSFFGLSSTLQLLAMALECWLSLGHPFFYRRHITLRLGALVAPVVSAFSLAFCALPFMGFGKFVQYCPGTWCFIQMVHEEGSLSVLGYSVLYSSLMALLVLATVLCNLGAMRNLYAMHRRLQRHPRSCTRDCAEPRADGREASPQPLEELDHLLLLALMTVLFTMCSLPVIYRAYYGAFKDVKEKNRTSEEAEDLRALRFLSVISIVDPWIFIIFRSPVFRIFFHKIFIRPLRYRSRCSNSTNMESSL
Summary of the method: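 Functional antagonism measured by Ca2+ flux at 37 °C. Agonist ranges were 10^−11 to 10^−5 M, or 10^−12 to 10^−6 M for TP with U-46619; PGE2 for EP1/EP3, BW 245C for DP1. Compound spanned 0.1–30 μM except TP, 0.067–1 μM.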

[3] = target: T3, human prostanoid EP3 receptor (Homo sapiens, UniProt P43115); experiment: FLIPR Ca2+ signaling antagonist assay, EP3 receptor stable cell line; settings: HEK-293 EBNA stable cell line; standard agonist PGE2; NA = inactive (no antagonism or Kb 10,000 nM); PAg, Ag not defined
T3 construct: expressed in transfected cells
T3 sequence (P43115 1-390): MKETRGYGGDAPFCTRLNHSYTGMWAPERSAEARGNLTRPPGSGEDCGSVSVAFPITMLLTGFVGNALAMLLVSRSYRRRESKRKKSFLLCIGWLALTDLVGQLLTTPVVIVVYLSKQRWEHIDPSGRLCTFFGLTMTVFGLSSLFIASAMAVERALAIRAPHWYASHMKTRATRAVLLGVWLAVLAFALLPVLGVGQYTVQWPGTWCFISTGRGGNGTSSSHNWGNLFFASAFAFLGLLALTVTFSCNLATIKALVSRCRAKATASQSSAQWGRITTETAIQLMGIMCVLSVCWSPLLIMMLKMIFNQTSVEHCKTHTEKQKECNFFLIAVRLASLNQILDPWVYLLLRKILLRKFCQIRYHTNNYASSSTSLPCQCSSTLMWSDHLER
Method: The above compounds were tested for PG antagonist activity as follows using human recombinant prostanoid receptor (DP1, EP1-4, FP, IP and TP) stable cell lines:
In order to measure the response of Gs and Gi coupled prostanoid receptors as a Ca^2+ signal, chimeric G protein cDNAs were used. Stable cell lines over-expressing human prostanoid DP1, EP1-4, FP, IP, and TP receptors were established as follows:
Briefly, human prostanoid DP1, EP2, and EP4 receptor cDNAs were co-transfected with chimeric Gqs cDNA containing a haemagglutanin (HA) epitope; human prostanoid EP3 receptors were co-transfected with chimeric Gqi-HA; human EP1, FP, IP, and TP receptor cDNAs were expressed with no exogenous G-proteins. Gqs and Gqi chimeric cDNAs (Molecular Devices, Sunnyvale, Calif., U.S.A.), as well as cDNAs of prostanoid receptors, were cloned into a pCEP4 vector with a hygromycin B selection marker. Transfection into HEK-293 EBNA (Epstein-Barr virus nuclear antigen) cells was achieved by the FuGENE 6 transfection Reagent (Roche Applied Science, Indianapolis, Ind., USA). Stable transfectants were selected according to hygromycin resistance. Because Gqs and Gqi contained an HA epitope, G-protein expression was detected by Western blotting analysis using anti-mouse HA monoclonal antibody and horseradish peroxidase (HRP)-conjugated secondary antibody, while functional expression of prostanoid receptors was detected by FLIPR screening (Matias et al., 2004). These stable cell lines were validated using previously published antagonists at 10 μM against serial dilutions of standard agonists by FLIPR functional assays for Ca^2+ Signaling (as described below).
Ca^2+ signaling studies were performed using a FLIPR TETRA system (Molecular Devices, Sunnyvale, Calif., USA) in the 384-format. This is a high-throughput instrument for cell-based assays to monitor Ca^2+ signaling associated with GPCRs and ion channels. Cells were seeded at a density of 5×10^4 cells/well in BioCoat poly-D-lysine coated, black wall, clear bottom 384-well plates (BD Biosciences, Franklin lakes, NJ, USA) and allowed to attach overnight in an incubator at 37° C. The cells were then washed twice with HBSS-HEPES buffer (Hanks' balanced salt solution without bicarbonate and phenol red, 20 mM HEPES, pH 7.4) using an ELx405 Select CW Microplate Washer (BioTek, Winooski, Vt., USA). After 60 min of dye-loading in the dark using the Ca^2+-sensitive dye Fluo-4AM (Invitrogen, Carlsbad, Calif., USA), at a final concentration of 2×10^−6M, the plates were washed 4 times with HBSS-HEPES buffer to remove excess dye and leaving 50 μl of buffer in each well. The plates were then placed in the FLIPR TETRA instrument and allowed to equilibrate at 37° C. AGN-211377 was added in a 25 μl volume to each well to give final concentrations of 0.1 μM, 0.3 μM, 1 μM, 3 μM, 10 μM, and 30 μM; or 0.067 μM, 0.1 μM, 0.2 μM, 0.3 μM, 0.67 μM, and 1 μM for cells over-expressing TP receptors. After 4.5 minutes, a 7-point serial dilution of the standard agonist for the corresponding receptor, in a 25 μl volume was injected at the final concentrations from 10^−11M to 10^−5M in 10-fold serial dilution increments for cells expressing human recombinant DP1, EP1, EP2, EP3, EP4, FP, and IP receptors. The dose range for the standard agonist for human recombinant TP receptors was from 10^−12 M to 10^−6 M. HBSS-HEPES buffer was used as the negative control for the standard agonists. Cells were excited with LED (light emitting diode) excitation at 470-495 nm and emission was measured through an emission filter at 515-575 nm. Assay plates were read for 3.5 minutes using the FLIPR^TETRA. The peak increase in fluorescence intensity was recorded for each well. On each plate, negative controls, dose response of positive controls, and co-treatments of antagonist-agonist for each dose were in triplicates.
Standard agonists were as follows: DP=BW 245C, EP1-EP4=PGE2, FP=17-phenyl-PGF2α, IP=Cicaprost, and TP=U-46619. […]

SMILES | Kb [1] [nM] | Kb [2] [nM] | Kb [3] [nM] | DP1 (FLIPR) Kb [2] | FP (FLIPR) Kb [1] | EP3 (FLIPR) Kb [3]
Cc1cc(CC(C)(C)C(=O)O)nn1Cc1cc(Br)ccc1OCC1CCCC1 [Example 71, 3-{1-[5-Bromo-2-(2-cyclopentylmethoxy)-benzyl]-5-methyl-1H-pyrazol-3-yl}-2,2-dimethyl-propionic acid] | 200 | 900 | 3200 |  |  | 
CCC(CC)COc1ccc(Br)cc1Cn1nc(CCC(=O)O)cc1C(C)(C)C [Example 57, 3-{1-[5-Bromo-2-(2-ethyl-butoxy)-benzyl]-5-tert-butyl-1H-pyrazol-3-yl}-propionic acid] | 500 | 1600 | 6600 |  |  | 
Cc1cc(CCC(=O)O)nn1Cc1cc(Cl)ccc1C#CC1CCCC1 [Example 73, 3-{1-[5-Chloro-2-cyclopentylethynyl-benzyl]-5-methyl-1H-pyrazol-3-yl}-propionic acid] | 50 | 700 | 2700 |  |  | 
CCCCC(CC)COc1ccc(Br)cc1Cn1nc(CCC(=O)O)cc1C (stereo not drawn) [Example 6, 3-[1-(5-Bromo-2-(2-ethyl-hexyloxy)-benzyl)-5-methyl-1H-pyrazol-3-yl]-propionic acid] | 400 | 180 | 8800 |  |  | 
CCCc1cc(CCC(=O)O)nn1Cc1cc(Br)ccc1OCC(CC)CC [Example 56, 3-{1-[5-Bromo-2-(2-ethyl-butoxy)-benzyl]-5-propyl-1H-pyrazol-3-yl}-propionic acid] | 900 | 800 | 2700 |  |  | 
CCC(CC)COc1ccc(Br)cc1Cn1nc(CCC(=O)O)cc1C(C)C [Example 55, 3-{1-[5-Bromo-2-(2-ethyl-butoxy)-benzyl]-5-isopropyl-1H-pyrazol-3-yl}-propionic acid] | 110 | 540 | 3700 |  |  | 
Cc1cc(CCC(=O)O)nn1Cc1cc(Cl)ccc1OCC(C)(C)C [Example 35, 3-[1-(5-Chloro-2-(2,2-dimethylropoxy)benzyl)-5-methyl-1H-pyrazol-3-yl]-propionic acid] | 110 |  | 5400 | PAg |  | 
CCCC(C)COc1ccc(Br)cc1Cn1nc(CCC(=O)O)cc1C (stereo not drawn) [Example 8, 3-[1-(5-Bromo-2-(2-methyl-pentyloxy)-benzyl)-5-methyl-1H-pyrazol-3-yl]-propionic acid] | 90 | 110 | 6400 |  |  | 
Cc1cc(CCC(=O)NS(=O)(=O)C(F)(F)F)nn1Cc1cc(Br)ccc1OCC(C)C [Example 19, N-(3-{1-[5-Bromo-2-isobutoxybenzyl]-5-methyl-1H-pyrazol-3-yl}-propionyl)-C,C,C-trifluoro-methanesulfonamide] | 220 | 200 | 700 |  |  | 
Cc1cc(CCC(=O)O)nn1Cc1cc(Cl)ccc1OCCCC(C)C [Example 40, 3-[1-(5-Chloro-2-(4-methylpentyloxy)benzyl)-5-methyl-1H-pyrazol-3-yl]-propionic acid] | 360 |  | 5700 | PAg |  | 
Cc1cc(CCC(=O)O)nn1Cc1cc(OC(F)(F)F)ccc1OCC1CCCC1 [Example 50, 3-[1-(2-Cyclopentylmethoxy-5-trifluoromethoxy-benzyl)-5-methyl-1H-pyrazol-3-yl]-propionic acid] | 90 |  | 7100 | Ag |  | 
CCC(CC)COc1ccc(Br)cc1Cn1nc(CCC(=O)NS(=O)(=O)C(F)(F)F)cc1C [Example 17, N-(3-{1-[5-Bromo-2-(2-ethyl-butoxy)-benzyl]-5-methyl-1H-pyrazol-3-yl}-propionyl)-C,C,C-trifluoro-methanesulfonamide] | 400 | 200 | 1000 |  |  | 
CCC(CC)COc1ccc(Cl)cc1Cn1nc(CC(C)C(=O)O)cc1C (racemic) [Example 68, 3-{1-[5-Chloro-2-(2-ethyl-butoxy)-benzyl]-5-methyl-1H-pyrazol-3-yl}-2-methyl-propionic acid] | 400 | 260 | 5200 |  |  | 
Cc1cc(CCC(=O)O)nn1Cc1cc(OC(F)(F)F)ccc1OCc1ccc(Cl)cc1 [Example 51, 3-[1-[2-(4-Chloro-benzyloxy)-5-trifluoromethoxy-benzyl]-5-methyl-1H-pyrazol-3-yl]-propionic acid] | 20 | 600 | 6600 |  |  | 
Cc1cc(CCC(=O)NS(=O)(=O)C(F)(F)F)nn1Cc1cc(Cl)ccc1OCC1CCCC1 [Example 43, N-(3-[1-(5-Chloro-2-cyclopentylmethoxybenzyl)-5-methyl-1H-pyrazol-3-yl]-propionyl)C,C,C-trifluoromethanesulfon amide] | 400 |  | 1700 | PAg |  | 
CCC(CC)COc1ccc(Br)cc1Cn1nc(CCC(=O)O)cc1C(F)(F)F [Example 58, 3-{1-[5-Bromo-2-(2-ethyl-butoxy)-benzyl]-5-trifluororomethyl-1H-pyrazol-3-yl}-propionic acid] |  | 60 |  |  | PAg | PAg
Cc1cc(CCC(=O)NS(=O)(=O)C(F)(F)F)nn1Cc1cc(Cl)ccc1OCc1ccc(Cl)cc1Cl [Example 27, N-(3-[1-(5-Chloro-2-(2,4-dichlorobenzyloxy)benzyl)-5-methyl-1H-pyrazol-3-yl]-propionyl)C,C,C-trifluoromethanesulfonamide] | 90 | 200 | 500 |  |  | 
